Assays:
[1] = system: bovine pulmonary arteries (BPA); assay: Isometric force generation to serotonin (5-HT) in organ cultured BPA rings; type: cell-based
Protocol: (§1) Organoid Culture Isolated Arteries for Heme Modulation. Intralobar BPA were isolated from slaughterhouse-derived bovine calf lungs, cleaned from surrounding tissue, and placed in 37° C. Dulbecco's Modified Eagle Medium (DMEM) containing 10% fetal bovine serum, penicillin, streptomycin, and fungizone (complete media). The arteries were isolated and cut into rings ˜2 mm in diameter and width, and the endothelium was removed by gentle rubbing of the lumen. Various compounds (i.e. ALA, FeSO4(Fe), deferoxamine) were added as described in the Results to various experimental groups, and these arteries were organ cultured overnight for 24 h in complete media in a 37° C.-5% CO2 incubator. Preliminary experiments on the time course for detection protoporphyrin IX accumulation and the effects of organ culture with doses of ALA in the 10-100 μM concentration range on contractile function, and minimizing the duration of organ culture were considerations that contributed to selecting the 24 h culture period used in this study.
Studies on the Regulation of Contractile Function. Following the overnight incubation, arterial rings were mounted on wire hooks attached to Grass (FT03) force displacement transducers for measurement of changes in isometric force. Tension was adjusted to 5 g, which is the optimal passive force for maximal contraction. Changes in force were recorded on a Grass polygraph (model 7), while vessels were incubated in 10-ml baths (Metro Scientific), which were individually thermostated (37° C.) in Krebs buffer gassed with 21% O2-5% CO2 (balance N2) in the absence of compounds used to modulate BPA protoporphyrin IX levels. Arteries were incubated for 1 h during which passive tension was adjusted to maintain 5 grams. The vessels were then depolarized with Krebs containing 123 mM KCl (High K^+) in place of NaCl, followed by re-equilibration with Krebs, prior to exposure to the experimental protocols. Following the wash with Krebs buffer after the High K^+ treatment, and a 30 min equilibration, BPA were then contracted with serotonin (5-HT) in a dose dependent manner to determine the response to this contractile agent. In some experiments, BPA were pretreated with the sGC inhibitor, 10 μM ODQ, for 15 min before contraction with serotonin. The effects of ODQ on relaxation to NO was determined by first contracting organ cultured control and ODQ-treated BPA with 1 μM 5-HT (after the initial exposure to increasing concentrations of 5-HT and a 30 min equilibration in Krebs).

[2] = system: VASP serine-239 phosphorylation (cGMP-dependent protein kinase activation); assay: Western blot of VASP serine-239 phosphorylation in BPA; type: cell-based, bovine
Protocol: Rings from studies on contractile function were snap-frozen in liquid nitrogen, crushed and homogenized in lysis buffer (50 mM Tris-HCl, pH 8.0, 150 mM NaCl, 1 mM EDTA, 1% Triton X-100, 0.5% sodium deoxycholate, 0.1% sodium dodecyl sulfate, 1% of a protease inhibitor cocktail (Sigma) and 1% of a phosphatase inhibitor cocktail (Sigma). The protease inhibitor cocktail included 4-(2-aminoethyl)benzenesulfonyl floride hydrocholride, aprotinin, bestatin hydrochloride, N-(trans-epoxsuccinyl)-L-leucine-4-guanidinobutylamide, leupeptine hemisulfate, pepstatin and the phosphatase inhibitor cocktail included sodium orthovandate, sodium molybdate, sodium tartarate, and imidazole. Protein concentration was determined and 30 μg of protein samples were prepared in electrophoresis sample buffer containing 3% SDS and 3% β-mercaptoethanol and were separated using a 12% gel SDS-PAGE electrophoresis. Membranes were blocked for 1 h in TBST-5% milk and incubated overnight with phospho-VASP antibodies (diluted 1:1000). Membranes were exposed to a secondary horse radish peroxidase linked antibody and visualized with an ECL kit (Amersham). The membranes were subsequently exposed to X-OMAT autoradiography paper (Kodak). Membranes were stripped with TRIS-HCl buffer with 100 mM β-mercaptoethanol at 50° C. for 30 min. Membranes were subsequently washed, blocked and detected for total VASP. Each measurement of phosphorylated VASP was normalized to the total level of VASP, and data are reported as the percent of the levels of phosphorylated VASP seen in control arteries not exposed to agents which modulate the activity of sGC. Expression of sGC was detected with β-sGC subunit antibodies (diluted 1:2000), employing anti-rabbit secondary antibodies, and a protocol where membranes were blocked for 2 h. After analyzing for sGC protein expression, blots were stripped and re-probed for the detection of α-actin protein levels, which were used for normalization of data for statistical analysis based on protein loading.

[3] = molecular target: T1, sGC (Bos taurus, UniProt P16068); conditions: reference (34), cited from earlier work
T1 sequence (P16068 1-619): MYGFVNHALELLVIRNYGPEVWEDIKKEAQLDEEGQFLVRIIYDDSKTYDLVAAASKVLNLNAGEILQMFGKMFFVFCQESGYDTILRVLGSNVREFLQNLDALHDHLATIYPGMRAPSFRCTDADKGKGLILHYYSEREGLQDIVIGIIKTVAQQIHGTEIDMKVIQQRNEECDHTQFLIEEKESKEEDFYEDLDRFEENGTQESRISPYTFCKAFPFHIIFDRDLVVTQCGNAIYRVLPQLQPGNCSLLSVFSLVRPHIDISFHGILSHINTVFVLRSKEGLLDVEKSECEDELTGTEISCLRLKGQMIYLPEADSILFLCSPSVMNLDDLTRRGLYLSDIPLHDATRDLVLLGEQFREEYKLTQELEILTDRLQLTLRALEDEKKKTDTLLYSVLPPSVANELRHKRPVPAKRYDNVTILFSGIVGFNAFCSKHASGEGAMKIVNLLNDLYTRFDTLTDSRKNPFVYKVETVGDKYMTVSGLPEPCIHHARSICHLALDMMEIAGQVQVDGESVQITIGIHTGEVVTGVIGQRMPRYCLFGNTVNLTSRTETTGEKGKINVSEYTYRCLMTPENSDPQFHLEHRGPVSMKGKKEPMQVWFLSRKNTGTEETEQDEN
T1 sequence (P19687 1-691 partner): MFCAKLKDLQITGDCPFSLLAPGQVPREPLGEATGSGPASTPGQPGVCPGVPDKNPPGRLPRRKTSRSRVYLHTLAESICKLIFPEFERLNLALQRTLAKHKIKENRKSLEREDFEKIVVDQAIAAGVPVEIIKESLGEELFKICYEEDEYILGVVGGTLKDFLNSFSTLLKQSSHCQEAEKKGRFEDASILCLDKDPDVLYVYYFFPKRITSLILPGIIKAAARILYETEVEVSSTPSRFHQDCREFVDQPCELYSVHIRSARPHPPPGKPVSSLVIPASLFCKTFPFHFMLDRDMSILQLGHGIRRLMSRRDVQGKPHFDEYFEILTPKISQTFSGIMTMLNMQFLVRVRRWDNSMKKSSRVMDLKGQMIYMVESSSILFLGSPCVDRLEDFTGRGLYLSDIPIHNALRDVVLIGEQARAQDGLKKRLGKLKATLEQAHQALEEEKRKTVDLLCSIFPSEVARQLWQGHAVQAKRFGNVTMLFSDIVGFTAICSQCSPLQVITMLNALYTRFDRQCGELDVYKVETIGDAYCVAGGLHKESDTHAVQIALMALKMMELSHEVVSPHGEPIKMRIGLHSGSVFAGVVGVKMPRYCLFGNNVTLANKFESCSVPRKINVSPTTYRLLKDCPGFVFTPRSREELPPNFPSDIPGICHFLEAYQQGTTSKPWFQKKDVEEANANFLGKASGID

[4] = molecular target: T2, sGC purified from bovine lungs (Bos taurus, UniProt P16068); conditions: reference (34); cited from earlier work
T2 construct: host or cells: bovine lung
T2 sequence (P16068 1-619): T1 sequence (P16068 1-619)
T2 sequence (P19687 1-691 partner): T1 sequence (P19687 1-691 partner)

[5] = system: bovine airways; assay: Superoxide detection by lucigenin chemiluminescence in bovine airways; type: cell-based; conditions: 10 μM PDBu for 30 minutes
Protocol: Bovine bronchi were isolated from the same lungs used for pulmonary arteries, and studied for changes in protoporphyrin IX fluorescence and force under the same conditions as bovine pulmonary arteries described above. Superoxide was detected by the chemiluminescence produced by 5 μM lucigenin, which was detected by photon counting in a scintillation counter.

[6] = system: bovine pulmonary arteries (BPA); assay: Protoporphyrin IX-associated tissue fluorescence in organ cultured BPA rings; type: cell-based
Protocol: as §1
Determination Changes in Protoporphyrin 1× and Heme Levels. Methods for the detection of protoporphyrin IX tissue fluorescence developed for the detection in cancerous cells with tissue depths of up to several millimeters (27) were adapted for detecting changes in the endogenous levels of protoporphyrin IX in BPA rings which were organ cultured with ALA. When excited with light in the regions of 505 and 540 nm, protoporphyrin IX has an emission in the region of 635 nm. […] Increases in protoporphyrin IX were measured using an excitation wavelength of 528±20 nm and emission of 620±40 nm in intact vessels. Ring segments of approximately equal size (˜4 mm in diameter and length) were centered on the bottom of the ˜6 mm diameter wells of a 96 well microplate with 200 μl of Krebs containing with 10 mM Hepes buffer (pH 7.4), and the fluorescence was measured from the bottom surface of the plate using BIOTEK fluorescent microplate reader (Model FLx800i). Data are reported in the arbitrary fluorescence units measured (AU), after subtraction of the low levels of background fluorescence observed in the absence of BPA.

[7] = system: bovine pulmonary arteries (BPA); assay: Heme content of BPA homogenates (QuantiChrom heme assay); type: cell-based; conditions: organ culture with 100 μM ALA and/or 100 μM Fe
Protocol: Heme was quantified in BPA homogenates using a QuantiChrom heme assay kit purchased from BioAssay Systems, and changes in absorbance were measured in a BIOTEK scanning microplate spectrophotometer. Briefly, segments were homogenized in 20 mM MOPS+sucrose buffer and diluted to approximately 5 mg protein/ml. Homogenates were centrifuged at 2000×g for 5 min, and 50 μl of supernatant obtained were assayed for their heme content based on the manufacture's instructions, employing measurements of changes in absorbance at 400 nm. The protein content of the supernatant was measured with Biorad protein assay kit, and tissue heme levels were reported as nanomoles/mg protein.

[8] = molecular target: T1, sGC; assay: sGC activity in BPA homogenates (cGMP by ELISA); type: biochemical, bovine; set-up: Guanylate cyclase activity of homogenates of BPA was measured by enzyme immunoassay; from tissue; host or cells: BPA (pulmonary artery rings, organ cultured) homogenate; conditions: organ culture with 100 μM ALA and/or 100 μM Fe
Protocol: Guanylate cyclase activity of homogenates of BPA was measured by enzyme immunoassay of the amounts of cGMP generated. Briefly, BPA were pulverized in liquid nitrogen and homogenized in MOPS buffer 1:3 wt to buffer ratio at 5° C. Reaction mixture (0.2 ml final volume) contained 20 mM MOPS-KOH (pH 7.4), 0.1 mM GTP, 2 mM MgCl2, 0.3 mM of the phosphodiesterase inhibitor 3-Isobutyl-1-methylxanthine, a GTP-regenerating system consisting of 10 mM phosphocreatine and 150 U/ml creatine phosphokinase, and 0.1 ml of homogenate (11, 15), and test agents, as indicated. Assays of sGC activity were initiated by the addition of BPA homogenate. Incubations were conducted for 10 min at 37° C., and they were terminated by the addition of 0.1 ml of preheated 12 mM EDTA. This was followed by boiling the assay mixtures for 10 min and a subsequent addition of 5% trichloroacetic acid. The precipitate was removed by centrifugation and the supernatant was washed three times with water-saturated diethyl ether. Residual ether was removed by incubation at 70° C. for 5 minutes, prior to measurement of cGMP by ELISA (Cayman), as described in the manual supplied by manufacturer of the ELISA kit.

[9] = 10 μM ODQ on BPA organ cultured with 100 μM ALA
[10] = 100 μM Fe in the presence of 100 μM ALA
[11] = organ culture with 100 μM Fe alone

O=c1onc2cnc3ccccc3n12 [ODQ, 1H-[1,2,4]oxadiazolo[4,3-α]quinoxalin-1-one]
force generation to 5-HT ([1]; 10 μM ODQ alone): did not alter
decrease in contraction to 5-HT caused by ALA [1, 9]: did not alter
relaxation to the NO donor ([1]; pretreatment with 10 μM ODQ, 10 μM spermine-NONOate): markedly attenuated relaxation
VASP serine-239 phosphorylation ([2]; 10 μM ODQ alone, appeared to decrease): did not reach statistical significance
increase in VASP serine-239 phosphorylation caused by ALA [2, 9]: did not significantly alter the increase in serine-239 VASP phosphorylation
increase in VASP serine-239 phosphorylation caused by the NO donor ([2]; 10 μM ODQ with 10 μM spermine-NONOate): attenuate the increase caused by the NO donor

C=CC1=C(C)c2cc3[n-]c(cc4[n-]c(cc5nc(cc1n2)C(C)=C5C=C)c(C)c4CCC(=O)O)c(CCC(=O)O)c3C.[Fe+2] [heme]
Kd ([3]; read-out: binding affinity for the binding site on sGC): ~350 nM
effect on activation of sGC by protoporphyrin IX [4]: competitive inhibitor

CCCC(=O)O[C@@H]1[C@@H](C)[C@@]2(O)[C@@H](C=C(CO)C[C@]3(O)C(=O)C(C)=C[C@@H]23)[C@@H]2C(C)(C)[C@]12OC(=O)CCC [PDBu]
superoxide detected by 5 μM lucigenin chemiluminescence [5]: causes an increase in superoxide

NCCCNCCCCN(CCCN)/[N+]([O-])=N/O [spermine-NONOate]
relaxation of organ cultured BPA ([1]; 10 μM spermine-NONOate): relaxed
VASP serine-239 phosphorylation ([2]; 10 μM spermine-NONOate): increased VASP phosphorylation

C=CC1=C(C)c2cc3[nH]c(cc4nc(cc5[nH]c(cc1n2)c(C)c5CCC(=O)O)C(CCC(=O)O)=C4C)c(C)c3C=C [protoporphyrin IX]
binding affinity for the binding site on sGC [3]: low nanomolar concentration range

O=S(=O)([O-])[O-].[Fe+2] [Fe, FeSO4]
protoporphyrin IX fluorescence [6, 10]: reversed the increase in protoporphyrin IX fluorescence
background fluorescence of BPA [6, 11]: did not alter the background fluorescence
force generation by 5-HT [1, 10]: reversed the force attenuating effects
force generation by 5-HT [1, 11]: did not alter force generation
BPA heme levels [7]: did not reach statistical significance
BPA homogenate sGC activity [8]: did not alter sGC activity

— patent US7989420B2, “Smooth muscle relaxation” (New York Medical College, priority 2006, dated 2011)
